We go through 26 molecules from US20100331305A1, “OXO-HETEROCYCLE FUSED PYRIMIDINE COMPOUNDS, COMPOSITIONS AND METHODS OF USE” (Genentech, Inc., priority 2009, published 2010).

Assay [1] has as its target mTOR enzyme (mTOR(1360-2549)+GBL) (Homo sapiens, UniProt P42345). The assay can be described thus: In vitro mTOR kinase assay (TR-FRET). It is filed as biochemical. The conditions noted are these: 0.25 nM mTOR+GBL, 8 uM ATP; values tied to compounds by order of Table 1; 'x or y' = two alternative values for separated diastereomers of unassigned stereochemistry; read-out: activity level (Ki) in the mTOR kinase assay. An excerpt:
a. In Vitro mTOR Kinase Assay
The reaction is stopped by an addition of a Terbium-labeled phospho-specific antibody, e.g., Tb-labeled anti-p4E-BP1 T37/T46, (Invitrogen, product #PR8835A), EDTA, and TR-FRET buffer solution (Invitrogen, Product #PR3756B). Product formation is detected by way of time-resolved fluorescence resonance energy transfer (TR-FRET), which occurs when the phosphorylated substrate and labeled antibody are in close proximity due to phospho-specific binding. Enzymatic activity is measured as an increase in TR-FRET signal using a Perkin Elmer Envision plate reader.
Compound activity is tested in 10 point dose curves starting at the highest final concentration of 10 uM. They are serially diluted in 100% DMSO prior to further dilution with assay buffer. […] 8 μL of solution containing 2 nM Tb-anti-p4E-BP1 antibody & 10 mM EDTA diluted TR-FRET buffer is then added and incubated for 30 minutes to stop the reaction. The plate is scanned with the Envision plate reader. Ki values are calculated in Assay Explorer using the Morrison ATP-competitive tight binding equation for Ki apparent determination.
In general terms: Time-resolved FRET reads energy transfer from a long-lived donor to a nearby acceptor.

Another assay has as its system PC3 cells. The assay can be described thus: In vitro cell proliferation assay. The conditions noted are these: values tied to compounds by order of Table 1. It counts as cell-based, human. The protocol:
c. In Vitro Cell Proliferation Assay Efficacy of Formula I compounds were measured by a cell proliferation assay employing the following protocol: 1. An aliquot of 20 μl of cell culture containing about 10^3 cells (PC3 or MDAMB361.1) in medium was deposited in each well of a 384-well, opaque-walled plate. 2. Control wells were prepared containing medium and without cells; Cells were allowed to settle overnight. 3. The compound was added to the experimental wells and incubated for 3 days. 4. The plates were equilibrated to room temperature for approximately 30 minutes. 5. A volume of CellTiter-Glo Reagent equal to the volume of cell culture medium present in each well was added. […] The contents were mixed for 2 minutes on an orbital shaker to induce cell lysis. 7. The plate was incubated at room temperature for 20 minutes to stabilize the luminescence signal. 8. Luminescence was recorded and reported in graphs as RLU=relative luminescence units. Alternatively, cells were seeded at optimal density in a 96 well plate and incubated for 4 days in the presence of test compound. Alamar BlueTM was subsequently added to the assay medium, and cells were incubated for 6 h before reading at 544 nm excitation, 590 nm emission. EC50 values were calculated using a sigmoidal dose response curve fit.

Setting [2] is: Homo sapiens, PC-3, with PC3 cells.

pEC50, pKi: −log10 of the molar value.

Chain of mTOR enzyme (mTOR(1360-2549)+GBL) (P42345 1360-2549, species assumed): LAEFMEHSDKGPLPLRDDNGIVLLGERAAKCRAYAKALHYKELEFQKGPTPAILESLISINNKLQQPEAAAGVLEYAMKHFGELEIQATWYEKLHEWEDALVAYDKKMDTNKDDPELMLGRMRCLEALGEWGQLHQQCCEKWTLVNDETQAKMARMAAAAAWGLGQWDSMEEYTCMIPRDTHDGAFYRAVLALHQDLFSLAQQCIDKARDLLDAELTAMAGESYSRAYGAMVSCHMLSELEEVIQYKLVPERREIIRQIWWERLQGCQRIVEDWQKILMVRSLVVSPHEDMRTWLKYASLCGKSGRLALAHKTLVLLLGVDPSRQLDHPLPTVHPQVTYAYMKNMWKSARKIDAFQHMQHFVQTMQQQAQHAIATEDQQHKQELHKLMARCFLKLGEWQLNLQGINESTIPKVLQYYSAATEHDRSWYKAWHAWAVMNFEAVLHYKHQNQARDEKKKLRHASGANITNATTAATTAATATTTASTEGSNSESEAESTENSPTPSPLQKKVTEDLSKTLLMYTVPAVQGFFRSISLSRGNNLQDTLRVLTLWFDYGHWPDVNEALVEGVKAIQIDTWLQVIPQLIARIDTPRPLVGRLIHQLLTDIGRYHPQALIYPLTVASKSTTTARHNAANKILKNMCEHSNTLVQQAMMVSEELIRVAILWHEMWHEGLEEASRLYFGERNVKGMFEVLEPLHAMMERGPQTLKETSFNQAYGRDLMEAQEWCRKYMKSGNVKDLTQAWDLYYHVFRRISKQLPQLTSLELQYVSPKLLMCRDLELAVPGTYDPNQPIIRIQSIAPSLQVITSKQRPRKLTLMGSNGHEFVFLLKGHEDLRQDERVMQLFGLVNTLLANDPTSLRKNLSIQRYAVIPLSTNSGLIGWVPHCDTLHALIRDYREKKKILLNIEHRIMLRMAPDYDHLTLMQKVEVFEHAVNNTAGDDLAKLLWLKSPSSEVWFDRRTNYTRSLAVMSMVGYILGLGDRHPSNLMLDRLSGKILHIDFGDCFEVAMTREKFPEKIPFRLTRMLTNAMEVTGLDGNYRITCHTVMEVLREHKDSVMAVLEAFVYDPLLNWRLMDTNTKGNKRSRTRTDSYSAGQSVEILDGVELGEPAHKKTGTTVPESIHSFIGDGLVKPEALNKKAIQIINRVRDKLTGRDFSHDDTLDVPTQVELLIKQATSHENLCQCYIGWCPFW
Chain of mTOR enzyme (mTOR(1360-2549)+GBL) (Q9BVC4 whole entry partner, species assumed): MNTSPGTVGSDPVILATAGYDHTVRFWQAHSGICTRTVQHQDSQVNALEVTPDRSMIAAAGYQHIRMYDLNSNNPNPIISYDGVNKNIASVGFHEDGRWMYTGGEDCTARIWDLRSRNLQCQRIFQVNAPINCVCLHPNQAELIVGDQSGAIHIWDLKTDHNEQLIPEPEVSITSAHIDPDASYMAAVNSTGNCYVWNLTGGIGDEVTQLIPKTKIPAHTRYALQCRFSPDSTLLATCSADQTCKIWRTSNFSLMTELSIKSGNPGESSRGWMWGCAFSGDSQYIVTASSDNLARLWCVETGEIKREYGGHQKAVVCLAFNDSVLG

In general, pKi refers to the Ki on a negative log10 scale, so that one unit is a factor of ten. As usually defined, the pEC50 is −log10 of the EC50, conventionally taken in molar units. A high value points to a low EC50. `CCNC(=O)Nc1ccc(-c2nc(N3CCOC[C@@H]3C)c3c(n2)C(C)(CCn2ccnc2)OC3)cc1` (single isomer, unassigned) [Example 80 es (R)]: in assay [1], the pKi was 8.05. The same molecule gave a pEC50 with PC3 cells (setting [2]) of 6.34.

As for `CCNC(=O)Nc1ccc(-c2nc(N3CCOC[C@@H]3C)c3c(n2)C(C)(CCn2ccnc2)OC3)cc1` (single isomer, unassigned) [Example 80 es (S)], the pKi in assay [1] was 8.70. This molecule showed a pEC50 in the assay on PC3 cells (with PC3 cells) of 6.50.

Regarding `CCNC(=O)Nc1ccc(-c2nc(N3CCOC[C@@H]3C)c3c(n2)C(C)(CCn2ccnc2C)OC3)cc1` (single isomer, unassigned) [Example 81 et (S)], the pKi in assay [1] is 8.15. In the assay on PC3 cells (setting [2]), this molecule showed a pEC50 of 6.40.

As for `O=C(Nc1ccc(-c2nc3c(c(N4[C@@H]5CC[C@H]4COC5)n2)CCCO3)cc1)NC1COC1` [1-(4-(4-((1R,5S)-3-oxa-8-azabicyclo[3.2.1]octan-8-yl)-6,7-dihydro-5H-pyrano[2,3-d]pyrimidin-2-yl)phenyl)-3-(oxetan-3-yl)urea], the pKi in assay [1] was 8.30. Further, the pEC50 in the assay on PC3 cells (setting [2]) is 6.62.

On to `CCNC(=O)Nc1ccc(-c2nc3c(c(N4[C@@H]5CC[C@H]4COC5)n2)CCCO3)cc1` [1-(4-(4-((1R,5S)-3-oxa-8-azabicyclo[3.2.1]octan-8-yl)-6,7-dihydro-5H-pyrano[2,3-d]pyrimidin-2-yl)phenyl)-3-ethylurea], for which, in assay [1], the pKi was 9.00. The pEC50 in the assay with PC3 cells (setting [2]) was 6.97.

`CCNC(=O)Nc1ccc(-c2nc3c(c(N4CCOC[C@@H]4C)n2)COC(COCc2ccccc2)C3)cc1` (stereo partly drawn) [1-(4-(7-(benzyloxymethyl)-4-((S)-3-methylmorpholino)-7,8-dihydro-5H-pyrano[4,3-d]pyrimidin-2-yl)phenyl)-3-ethylurea]: in assay [1], the pKi was 7.80. This molecule also gave a pEC50 with PC3 cells (setting [2]) of 6.23.

As for `CCNC(=O)Nc1ccc(-c2nc3c(c(N4CCOCC4)n2)COC(c2ccccn2)C3)cc1` (stereo not shown) [1-ethyl-3-(4-(4-morpholino-7-(pyridin-2-yl)-7,8-dihydro-5H-pyrano[4,3-d]pyrimidin-2-yl)phenyl)urea], in assay [1], the pKi was 7.57. In addition, the pEC50 in the assay with PC3 cells (setting [2]) was 6.04.

`CCNC(=O)Nc1ccc(-c2nc3c(c(N4CCOC[C@@H]4C)n2)COC(CO)C3)cc1` (stereo partly drawn) [1-ethyl-3-(4-(7-(hydroxymethyl)-4-((S)-3-methylmorpholino)-7,8-dihydro-5H-pyrano[4,3-d]pyrimidin-2-yl)phenyl)urea] gave a pEC50 with PC3 cells (setting [2]) of 6.35.

On to `CCNC(=O)Nc1ccc(-c2nc(N3CCOC[C@@H]3C)c3c(n2)[C@@](C)(CC(C)O)OC3)cc1` (stereo partly drawn) [1-ethyl-3-(4-((7R)-7-(2-hydroxypropyl)-7-methyl-4-((S)-3-methylmorpholino)-5,7-dihydrofuro[3,4-d]pyrimidin-2-yl)phenyl)urea], for which the negative logarithm of the Ki (pKi) in assay [1] was 8.70. The same molecule gave a pEC50 in the assay on PC3 cells (setting [2]) of 7.41.

In the case of `CCNC(=O)Nc1ccc(-c2nc(N3CCOC[C@@H]3C)c3c(n2)[C@](C)(CC(C)O)OC3)cc1` (stereo partly drawn) [1-ethyl-3-(4-((7S)-7-(2-hydroxypropyl)-7-methyl-4-((S)-3-methylmorpholino)-5,7-dihydrofuro[3,4-d]pyrimidin-2-yl)phenyl)urea], in assay [1], the pKi is 8.70. In the assay with PC3 cells (setting [2]), this molecule showed a pEC50 of 7.60.

On to `C[C@H]1COCCN1c1nc(-c2ccc(Nc3nccc(=O)[nH]3)cc2)nc2c1COC(CO)C2` (stereo partly drawn) [2-(4-(7-(hydroxymethyl)-4-((S)-3-methylmorpholino)-7,8-dihydro-5H-pyrano[4,3-d]pyrimidin-2-yl)phenylamino)pyrimidin-4(3H)-one], for which, in assay [1], the pKi is 8.40. Moreover, the pEC50 in the assay with PC3 cells (setting [2]) is 5.55.

For the molecule `CCNC(=O)Nc1ccc(-c2nc3c(c(N4CCOC[C@@H]4C)n2)COC(C)(C)C3)cc1` [(S)-1-(4-(7,7-dimethyl-4-(3-methylmorpholino)-7,8-dihydro-5H-pyrano[4,3-d]pyrimidin-2-yl)phenyl)-3-ethylurea], the pKi in assay [1] was 8.52. Also, the pEC50 with PC3 cells (setting [2]) is 7.30.

`CC[C@H]1COCCN1c1nc(-c2ccc(NC(=O)NC3COC3)cc2)nc2c1COCC2` [Example 6, (S)-1-(4-(4-(3-ethylmorpholino)-7,8-dihydro-5H-pyrano[4,3-d]pyrimidin-2-yl)phenyl)-3-(oxetan-3-yl)urea] showed a pEC50 with PC3 cells (setting [2]) of 6.74.

Molecule `C=CC[C@@]1(C)OCc2c(N3CCOCC3)nc(-c3ccc(NC(=O)NCC)cc3)nc21` [Example 73 eb (R), (R)-1-(4-(7-allyl-7-methyl-4-morpholino-5,7-dihydrofuro[3,4-d]pyrimidin-2-yl)phenyl)-3-ethylurea] showed a pEC50 in the assay with PC3 cells (setting [2]) of 7.02.

In the assay on PC3 cells (setting [2]), `C=CC[C@@]1(C)OCc2c(N3C[C@H]4CC[C@@H](C3)O4)nc(-c3ccc(NC(=O)NCC)cc3)nc21` [Example 74 eh (R), 1-(4-((R)-7-allyl-4-((1R,5S)-8-oxa-3-azabicyclo[3.2.1]octan-3-yl)-7-methyl-5,7-dihydrofuro[3,4-d]pyrimidin-2-yl)phenyl)-3-ethylurea] gave a pEC50 of 7.02.

In turn, `C=CC[C@]1(C)OCc2c(N3C[C@H]4CC[C@@H](C3)O4)nc(-c3ccc(NC(=O)NCC)cc3)nc21` [Example 74 eh (S), 1-(4-((S)-7-allyl-4-((1R,5S)-8-oxa-3-azabicyclo[3.2.1]octan-3-yl)-7-methyl-5,7-dihydrofuro[3,4-d]pyrimidin-2-yl)phenyl)-3-ethylurea] had a pEC50 with PC3 cells (setting [2]) of 6.82.

`CCC[C@@]1(C)OCc2c(N3C[C@H]4CC[C@@H](C3)O4)nc(-c3ccc(NC(=O)NCC)cc3)nc21` [Example 74 ej (R), 1-(4-((R)-4-((1R,5S)-8-oxa-3-azabicyclo[3.2.1]octan-3-yl)-7-methyl-7-propyl-5,7-dihydrofuro[3,4-d]pyrimidin-2-yl)phenyl)-3-ethylurea] had a pEC50 with PC3 cells (setting [2]) of 7.72. Compared with the last molecule, the pEC50 is 0.90 log units higher.

With `CCC[C@]1(C)OCc2c(N3C[C@H]4CC[C@@H](C3)O4)nc(-c3ccc(NC(=O)NCC)cc3)nc21` [Example 74 ej (S), 1-(4-((S)-4-((1R,5S)-8-oxa-3-azabicyclo[3.2.1]octan-3-yl)-7-methyl-7-propyl-5,7-dihydrofuro[3,4-d]pyrimidin-2-yl)phenyl)-3-ethylurea], in the assay with PC3 cells (setting [2]), the pEC50 was 7.29.

The molecule `CCNC(=O)Nc1ccc(-c2nc(N3CCOC[C@@H]3C)c3c(n2)[C@@](C)(CCCO)OC3)cc1` [Example 75 el (R), 1-ethyl-3-(4-((R)-7-(3-hydroxypropyl)-7-methyl-4-((S)-3-methylmorpholino)-5,7-dihydrofuro[3,4-d]pyrimidin-2-yl)phenyl)urea] gave a pEC50 in the assay on PC3 cells (setting [2]) of 6.49.

The molecule `CCNC(=O)Nc1ccc(-c2nc(N3CCOC[C@@H]3C)c3c(n2)[C@](C)(CCCO)OC3)cc1` [Example 75 el (S), 1-ethyl-3-(4-((S)-7-(3-hydroxypropyl)-7-methyl-4-((S)-3-methylmorpholino)-5,7-dihydrofuro[3,4-d]pyrimidin-2-yl)phenyl)urea] showed a pEC50 with PC3 cells (setting [2]) of 7.21.

Consider `CCNC(=O)Nc1ccc(-c2nc(N3CCOCC3C)c3c(n2)C(C)(CCOc2ccccc2)OC3)cc1` (stereo not shown) [Example 91 ft^1, 1-ethyl-3-(4-(7-methyl-4-(3-methylmorpholino)-7-(2-phenoxyethyl)-5,7-dihydrofuro[3,4-d]pyrimidin-2-yl)phenyl)urea], for which the pEC50 in the assay on PC3 cells (setting [2]) was 6.53.

Turning to `CCNC(=O)Nc1ccc(-c2nc(N3CCOC[C@@H]3C)c3c(n2)[C@](C)(CCOc2ccncc2)OC3)cc1` [Example 92 fu^1], the pEC50 with PC3 cells (setting [2]) is 6.62.

In turn, `CCNC(=O)Nc1ccc(-c2nc3c(c(N4C[C@H]5CC[C@@H](C4)O5)n2)COC3)cc1` [Example 99, 1-(4-(4-(8-oxa-3-azabicyclo[3.2.1]octan-3-yl)-5,7-dihydrofuro[3,4-d]pyrimidin-2-yl)phenyl)-3-ethylurea] showed a pEC50 in the assay on PC3 cells (setting [2]) of 6.81. The pEC50 values of the last two molecules are within 0.2 log units of each other.

In the case of `CC[C@H]1COCCN1c1nc(-c2ccc(N)nc2)nc2c1CCCO2` [Example 129, (S)-5-(4-(3-ethylmorpholino)-6,7-dihydro-5H-pyrano[2,3-d]pyrimidin-2-yl)pyridin-2-amine], the pKi in assay [1] is 7.96.

In the case of `Nc1ncc(-c2nc3c(c(N4C[C@H]5CC[C@@H](C4)O5)n2)CCCO3)cn1` [Example 131, 5-(4-((1R,5S)-8-oxa-3-azabicyclo[3.2.1]octan-3-yl)-6,7-dihydro-5H-pyrano[2,3-d]pyrimidin-2-yl)pyrimidin-2-amine], in assay [1], the pKi is 6.97.

Consider `Nc1ncc(-c2nc3c(c(N4[C@@H]5CC[C@H]4COC5)n2)CCCO3)cn1` [Example 133, 5-(4-((1R,5S)-3-oxa-8-azabicyclo[3.2.1]octan-8-yl)-6,7-dihydro-5H-pyrano[2,3-d]pyrimidin-2-yl)pyrimidin-2-amine], for which the pKi in assay [1] was 7.01.
